Results as given in patent US11873287B2, “Piperidine-2,6-dione derivatives and ulcerative colitis treating” (TIANJIN HEMAY PHARMACEUTICAL SCI-TECH CO., LTD, priority 2016, dated 2024).

Legend:
[1] = test system: DSS-Induced inflammatory Bowel Disease Models in Mice; test: DSS-induced inflammatory bowel disease model in mice (Biological Example 3, 1.0-1.5% DSS); assay type: in vivo, C57BL/6 mice; settings: 30 mg/Kg i.g. Q.D
Experimental: (§1) 40 healthy female C57BL/6 mice having weight of 16-19 g were randomly divided into 4 groups in accordance with weight. There were 10 mice in each group (see Table 6 below). The first day of the experiment was recorded as Day 0. The administration regimen and induction regimen were detailed in Table 6. The change in weight of experimental animals was recorded every day. […] Samples of animal colonic tissues were obtained to measure the length. One-way ANOVA analysis of mice weights was performed by SPSS22. Statistical analyses between groups were performed. Mann-Whitney U non-parametric test was performed on the length of colon.
(§2) Calculation Formula of Inhibitory Rate of Colonic Reduction: (Length of Colon in Administration Group−Length of Colon in Model Group)/(Length of Colon in Blank Group−Length of Colon in Model Group)

[2] = test system: DSS-Induced inflammatory Bowel Disease Models in Mice; test: DSS-induced inflammatory bowel disease model in mice (Biological Example 4, 1.3% DSS); assay type: in vivo, C57BL/6 mice; settings: 30 mg/Kg i.g. Q.D
Experimental: as §1
(§3) The experimental method used in the present biological example is identical to those in Biological Example 3.
as §2

[3] = test system: ICR mice; test: Acute toxicity experiment of single oral administration in mice; assay type: in vivo; settings: 1000 mg/Kg single oral dose
Experimental: The mice were fasted one day before the experiment. On the day of the experiment, 6 mice (ICR mice, body weight of 19-21 g, three females and three males) were selected in each experiment group. First of all, one female and one male were selected to orally give 1000 mg/Kg, and observed for 5-10 minutes. If there were no obvious side effects, the remaining 4 animals were orally given the same dose, and observed for 10-15 minutes. If no animal died, the animals were placed in a box to balancedly feed for 7 days. The state was observed and the body weight was recorded daily.
Observation Indexes within 0-15 Minutes After Administration
Activity: restlessness, hyperactivity
Nervous system response: tremor, spasm, convulsion, ataxia, posture abnormality, etc.
Autonomic nerve: exophthalmos, salivation, tears, urination (hematuria), diarrhea, piloerection, breathing, etc.
Observation Indexes Over 7 Days
State of Animal: lethargy, hyperactivity, excitement, hair loss, diarrhea, abnormal behavior, death, etc.

[4] = test system: DSS-Induced inflammatory Bowel Disease Models in Mice; test: DSS-induced inflammatory bowel disease model in mice (Biological Example 5, 1.3% DSS); assay type: in vivo, C57BL/6 mice; settings: 30 mg/Kg i.g. Q.D, 1.3% DSS days 0-5; for inhibition in vivo at 30 mg/kg: Mus musculus, po, read-out: Inhibitory Rate of Colonic Reduction
Experimental: as §1, §3
One-way ANOVA analysis of mice body weights and colonic weights per length was performed by SPSS22. Statistical analyses between groups were performed.
as §2

[5] = DSS 1.0% days 0-4, 1.5% days 5-9

## COCCN1C(=O)CCC(N2C(=O)c3ccc(N)cc3C2=O)C1=O (stereo not drawn) [Example 7, 5-amino-2-(1-(2-methoxyethyl)-2,6-dioxopiperidin-3-yl)isoindolin-1,3-dione]
[1]
  body weights compared with model control group: higher than that of the model control group
[1]; [5]
  Average Length of Colon (Mean ± SD): 6.4 ± 0.4 cm
  Inhibitory Rate of Colonic Reduction: 63.6%
[1]; Day 0
  Body Weights of Experimental Mice (Mean ± SD): 17.4 ± 0.8 g
[1]; Day 1
  Body Weights of Experimental Mice (Mean ± SD): 17.5 ± 0.7 g
[1]; Day 2
  Body Weights of Experimental Mice (Mean ± SD): 18.2 ± 0.8 g
[1]; Day 3
  Body Weights of Experimental Mice (Mean ± SD): 17.8 ± 0.8 g
[1]; Day 4
  Body Weights of Experimental Mice (Mean ± SD): 17.7 ± 0.7 g
[1]; Day 5
  Body Weights of Experimental Mice (Mean ± SD): 17.9 ± 0.8 g
[1]; Day 6
  Body Weights of Experimental Mice (Mean ± SD): 17.8 ± 0.8 g
[1]; Day 7
  Body Weights of Experimental Mice (Mean ± SD): 17.9 ± 0.8 g
[1]; Day 8
  Body Weights of Experimental Mice (Mean ± SD): 17.4 ± 0.7 g
[1]; Day 9
  Body Weights of Experimental Mice (Mean ± SD): 17.4 ± 0.7 g
[1]; Day 10
  Body Weights of Experimental Mice (Mean ± SD): 16.8 ± 0.9 g
[1]; Day 11
  Body Weights of Experimental Mice (Mean ± SD): 16.8 ± 1.0 g
[1]; Day 12
  Body Weights of Experimental Mice (Mean ± SD): 17.3 ± 1.0 g

## CNc1cccc2c1C(=O)N(C1CCC(=O)N(CCOC)C1=O)C2=O (stereo not drawn) [Example 2, 4-methylamino-2-(1-(2-methoxyethyl)-2,6-dioxopiperidin-3-yl)isoindolin-1,3-dione]
[2]; 1.3% DSS days 0-5
  Average Length of Colon (Mean ± SD): 6.9 ± 0.2 cm
  Inhibitory Rate of Colonic Reduction: 66.7%
[2]; Day 0
  Weights of Experimental Mice (Mean ± SD): 20.1 ± 0.8 g
[2]; Day 1
  Weights of Experimental Mice (Mean ± SD): 20.0 ± 0.7 g
[2]; Day 2
  Weights of Experimental Mice (Mean ± SD): 19.8 ± 0.6 g
[2]; Day 3
  Weights of Experimental Mice (Mean ± SD): 20.2 ± 0.8 g
[2]; Day 4
  Weights of Experimental Mice (Mean ± SD): 20.2 ± 0.8 g
[2]; Day 5
  Weights of Experimental Mice (Mean ± SD): 20.0 ± 0.6 g
[2]; Day 6
  Weights of Experimental Mice (Mean ± SD): 18.9 ± 0.6 g
[2]; Day 7
  Weights of Experimental Mice (Mean ± SD): 18.8 ± 0.7 g
[2]; Day 8
  Weights of Experimental Mice (Mean ± SD): 18.8 ± 1.0 g
[2]; Day 9
  Weights of Experimental Mice (Mean ± SD): 19.0 ± 1.1 g
[3]; Day 1
  Daily Body Weight of Tested Female Mice (Mean ± SD): 19.2 ± 0.5 g
  Daily Body Weight of Tested Male Mice (Mean ± SD): 18.6 ± 0.5 g
[3]; Day 2
  Daily Body Weight of Tested Female Mice (Mean ± SD): 22.7 ± 0.6 g
  Daily Body Weight of Tested Male Mice (Mean ± SD): 24.1 ± 0.4 g
[3]; Day 3
  Daily Body Weight of Tested Female Mice (Mean ± SD): 23.2 ± 0.5 g
  Daily Body Weight of Tested Male Mice (Mean ± SD): 24.7 ± 0.2 g
[3]; Day 4
  Daily Body Weight of Tested Female Mice (Mean ± SD): 23.2 ± 0.5 g
  Daily Body Weight of Tested Male Mice (Mean ± SD): 24.7 ± 0.2 g
[3]; Day 5
  Daily Body Weight of Tested Female Mice (Mean ± SD): 24.4 ± 0.2 g
  Daily Body Weight of Tested Male Mice (Mean ± SD): 26.2 ± 0.6 g
[3]; Day 6
  Daily Body Weight of Tested Female Mice (Mean ± SD): 24.6 ± 1.1 g
  Daily Body Weight of Tested Male Mice (Mean ± SD): 28.8 ± 0.5 g
[3]; Day 7
  Daily Body Weight of Tested Female Mice (Mean ± SD): 24.5 ± 1.9 g
  Daily Body Weight of Tested Male Mice (Mean ± SD): 29.2 ± 0.8 g
[3]; Female
  Summary of toxic response of tested animals in 7 Days: Abnormality was not observed in 7 days of the test
[3]; Male
  Summary of toxic response of tested animals in 7 Days: Slight abnormality of activity was occasionally observed in two

## COCCN1C(=O)CCC(N2C(=O)c3ccc(F)cc3C2=O)C1=O (stereo not drawn) [Example 21, 5-fluoro-2-(1-(2-methoxyethyl)-2,6-dioxopiperidin-3-yl)-isoindolin-1,3-dione]
[4]
  Length (cm, Mean ± SD) of colon: 6.9 ± 0.4 cm
  inhibition in vivo at 30 mg/kg: 100%

## COCCN1C(=O)CCC(C)(N2C(=O)c3cccc(N)c3C2=O)C1=O (stereo not drawn) [Example 15, 4-amino-2-(1-(2-methoxyethyl)-3-methyl-2,6-dioxopiperidin-3-yl)isoindolin-1,3-dione]
[4]
  Length (cm, Mean ± SD) of colon: 6.6 ± 0.4 cm
  inhibition in vivo at 30 mg/kg: 72.7%
